# Assay results: patent US6667311B2, “Nitrogen substituted biaryl purine derivatives as potent antiproliferative agents” (Albany Molecular Research, Inc., priority 2001, dated 2003)
# Tests used:
# Assay type in all cases: cell-based, human
# SNB-75 = assay: NCI growth inhibition, SNB-75; conditions: SNB-75 (CNS)
# NCI-H460 = assay: NCI growth inhibition, NCI-H460; conditions: NCI-H460 (Non-Small Cell Lung)
# SK-MEL-5 = assay: NCI growth inhibition, SK-MEL-5; conditions: SK-MEL-5 (Melanoma)
# OVCAR-3 = assay: NCI growth inhibition, OVCAR-3; conditions: OVCAR-3 (Ovarian)
# RXF 393 = assay: NCI growth inhibition, RXF 393; conditions: RXF 393 (Renal)
# K-562 = assay: NCI growth inhibition, K-562; conditions: K-562 (Leukemia)
# SNB-19 = assay: NCI growth inhibition, SNB-19; conditions: SNB-19 (CNS)
# HL-60 (TB) = assay: NCI growth inhibition, HL-60 (TB); conditions: HL-60(TB) (Leukemia)
# CAKI-1 = assay: NCI growth inhibition, CAKI-1; conditions: CAKI-1 (Renal)
# KM12 = assay: NCI growth inhibition, KM12; conditions: KM12 (Colon)
# OVCAR-4 = assay: NCI growth inhibition, OVCAR-4; conditions: OVCAR-4 (Ovarian)
# OVCAR-5 = assay: NCI growth inhibition, OVCAR-5; conditions: OVCAR-5 (Ovarian)
# BT-549 = assay: NCI growth inhibition, BT-549; conditions: BT-549 (Breast)
structure (smiles),measurement,setting,value
CC(=O)N[C@H]1CC[C@H](Nc2nc(NCc3ccc(-c4ccccc4)nc3)c3ncn(C(C)C)c3n2)CC1 [Compound 87],GI50,SNB-75,12 nM
same,GI50,NCI-H460,220 nM
same,GI50,SK-MEL-5,28 nM
same,GI50,OVCAR-3,50 nM
same,GI50,RXF 393,11 nM
same,GI50,K-562,24 nM
same,GI50,SNB-19,38 nM
same,GI50,HL-60 (TB),< 10 nM
same,GI50,CAKI-1,64 nM
same,GI50,KM12,< 10 nM
same,GI50,OVCAR-4,48 nM
same,GI50,OVCAR-5,51 nM
same,GI50,BT-549,20 nM
